The nature of series [1]: Ex vivo pharmacokinetic assessment in the rat brain using LC-MS/MS. Conditions: 10 μg/kg intravenous, n = 3. As to the method:
The rats were decapitated at 5, 15, 30, 60, and 120 min after intravenous administration of TASP0390136, TASP0390174, TASP0410426, TASP0410427, TASP0410457, or TASP0434988 at a dose of 10 μg/kg. The cerebellum and forebrain, including the medial prefrontal and cingulate cortices and anterior striatum, were dissected and homogenized with four volumes of distilled water. The homogenates were protein-precipitated with methanol/acetonitrile (1:9) and were centrifuged at 3974×g for 10 min at 4 °C. The resultant supernatants were injected into an HPLC (Shimadzu-20AD, Shimadzu, Kyoto, Japan) and a tandem mass spectrometer (API4000, AB SCIEX, Framingham, MA) using a Shim-pak XR-ODS column (3.0 × 30 mm, Shimadzu) at 50 °C. TASP0410457 was eluted with a mobile phase consisting of 10 mM of ammonium acetate/acetonitrile with a linear gradient at a flow rate of 1.3 mL/min, and ammonium formate instead of ammonium acetate was used for eluting the other five compounds. […] The eluted TASP0390136, TASP0390174, TASP0410426, TASP0410427, TASP0410457, and TASP0434988 were ionized using an electrospray interface and were detected using reaction monitoring of the transitions of m/z 395 to 91, 395 to 98, 413 to 98, 425 to 98, 408 to 138, and 407 to 138, respectively. A dihydroquinolinone compound (6-[(1-cyclobutylpiperidin-4-yl)oxy]-1-(3,5-difluorophenyl)-3,4-dihydroquinolin-2(1H)-one) was used as an internal standard for all assays. The lower qualification limit for TASP0410457 was 0.05 ng/g tissue, and the limit for the other five compounds was 0.15 ng/g tissue. Data were expressed as standardized uptake values (SUVs) calculated as follows: SUV=tissueconcentrationg/g×bodyweightg/injecteddoseg

Series [2] addresses T1, Adrenergic α2c receptor (Homo sapiens, UniProt P18825).
T1 construct: purchased PerkinElmer
T1 sequence (P18825 1-462): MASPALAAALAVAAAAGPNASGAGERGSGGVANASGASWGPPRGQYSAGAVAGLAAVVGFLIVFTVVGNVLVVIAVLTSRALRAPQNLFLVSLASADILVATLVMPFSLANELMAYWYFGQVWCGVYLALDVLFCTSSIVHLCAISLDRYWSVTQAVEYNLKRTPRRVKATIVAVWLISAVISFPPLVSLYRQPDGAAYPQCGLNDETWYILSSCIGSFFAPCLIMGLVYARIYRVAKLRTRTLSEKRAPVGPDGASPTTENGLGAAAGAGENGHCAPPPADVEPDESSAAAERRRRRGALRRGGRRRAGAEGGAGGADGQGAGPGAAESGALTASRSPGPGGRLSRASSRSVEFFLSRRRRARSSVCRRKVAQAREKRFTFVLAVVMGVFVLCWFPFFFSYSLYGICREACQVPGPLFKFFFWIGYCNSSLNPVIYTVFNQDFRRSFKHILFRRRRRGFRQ
Description: Adrenergic α2c receptor binding, [3H]MK-912. Conditions: 0.08 nM [3H]MK-912; read-out: Off-target binding Adrenergic α2c, IC50. The procedure: H) 6.86 [d, J = 8.67 Hz, 2 H]; MS [ESI/APCI Dual) [Positive) m/z; 381(M+H)+ ) .
Off-target binding of compounds
The membrane preparations were made from Jurkat cell lines, and were incubated in sigma 1 binding buffer (0.1% bovine serum albumin in 50 mM Tris, pH7.4) containing 4 nM [3H]pentazocine (PerkinElmer), and serial concentrations of the compound at 25°C for 2.5 h. The reaction was terminated by rapid filtration through a 96-well GF/C filter plate presoaked in 0.5% polyethyleneimine.
The filters were washed with ice-cold 50 mM Tris (pH7.4) three times, dried, and filled with Microscint-o. The radioactivity retained on the filter was counted using a TopCount NXT. Nonspecific binding was determined as the amount of radioactivity under the above-mentioned conditions in the presence of […] of haloperidol. The IC50 values were determined by nonlinear curve-fitting of the concentration-response data for each compound using Origin version 6.1087 (OriginLab Corporation, […]
Adrenergic 2c receptor binding
Human 2c receptor-expressing membrane preparations were purchased from PerkinElmer. The membranes were incubated in binding buffer (1 mM EDTA and 0.1% bovine serum albumin in 50 mM Tris, pH7.4) containing 0.08 nM [3H]MK-912 (PerkinElmer), and serial concentrations of the compound at 25°C for 1 h. The reaction was terminated by rapid filtration through a 96-well GF/C filter plate presoaked in 0.5% polyethyleneimine. […] The radioactivity retained on the filter was counted using a TopCount NXT. Nonspecific binding was determined as the amount of radioactivity under the conditions mentioned above in the presence of […] of rauwolscine. The IC50 values were determined as for sigma 1 receptor binding. […]
The reaction was terminated by rapid filtration through a 96-well GF/C filter plate presoaked in 0.5% polyethyleneimine. […] The radioactivity retained on the filter was counted using a TopCount NXT. Nonspecific binding was determined as the amount of radioactivity under the above-mentioned conditions in the presence of 1 µM of atropine.

As usually defined, the IC50 is the midpoint of a concentration-inhibition curve. Turning to `COc1ccc(N2C(=O)CCc3cc(OCCCN4CCC[C@H]4C)ccc32)cc1` [TASP0390136, 1-(4-methoxyphenyl)-6-{3-[(2R)-2-methylpyrrolidin-1-yl]propoxy}-3,4-dihydroquinolin-2(1H)-one], in series [1], the “Mean peak concentration in the forebrain expressed as SUV” value is 0.30 SUV. In addition, the IC50 in series [2] is above 1000 nM.
The corresponding values for `COc1ccc(N2C(=O)CCc3cc(OC4CCN(C5CCC5)CC4)ccc32)cn1` [TASP0410457, 6-[(1-Cyclobutylpiperidin-4-yl)oxy]-1-(6-methoxypyridin-3-yl)-3,4-dihydroquinolin-2(1H)-one] are 0.85 SUV and above 1000 nM.
The corresponding values for `COc1ccc(N2C(=O)CCc3cc(OC4CCN(C5CCC5)CC4)ccc32)cc1` [TASP0434988, 6-[(1-cyclobutylpiperidin-4-yl)oxy]-1-(4-methoxyphenyl)-3,4-dihydroquinolin-2(1H)-one] are 0.58 SUV and 528 nM.

Values taken from article PMC4747952, “Development of TASP0410457 (TASP457), a novel dihydroquinolinone derivative as a PET radioligand for central histamine H3 receptors” (EJNMMI Research, 2016).
